Patent publication US12312355B2, “1H-[1, 2, 3]triazolo[4, 5-h] quinazoline compounds acting as protein kinase inhibitors” (CHENGDU CYNOGEN BIO-PHARMACEUTICAL TECHNOLOGY CO., LTD., priority 2019, dated 2025)
pIC50: −log10 of the molar value. Structures can show the parent of a compound that is named as a salt.

Key:
Assay type in all cases: biochemical
Conditions in all cases: class symbols
CDK4/cyclin D3 = CDK4/cyclin D3 (Homo sapiens (Human), UniProt P11802); test: Kinase activity assay, Caliper Mobility Shift Assay, CDK4/cyclin D3
Experimental: The inhibitory effect of the compound on the kinase CDK4/cyclin D3 was tested by the Caliper Mobility Shift Assay method. The final test concentration of the compound was 10 concentrations, which started from […] and were obtained by three-fold dilution. 5 μL of 5-fold final concentration compound and 10 μL of CDK4/Cyclin D3 kinase solution with final concentration of 10 nM were added to the 384-well reaction plate respectively, and pre incubated at room temperature for 10 minutes (the negative control well contained 10 μL kinase buffer and 5 μL 5% DMSO; the positive control well contained 10 μL kinase solution and 5 μL 5% DMSO). The mixture of 10 μL ATP with a final concentration of 250 μM and the corresponding substrate peptide was added to initiate the reaction, and the mixture was reacted at room temperature for 150 minutes. 30 μL of stop test solution containing EDTA was added to stop the kinase reaction. Conversion rate was read by Caliper EZ Reader. Conversion inhibition rate %=(average conversion rate of positive control %−sample conversion rate %)/(average conversion rate of positive control %−average conversion rate of negative control %). Wherein: the negative control well represents conversion rate reading of wells without enzyme activity; the positive control well represents conversion rate reading of wells without compound inhibition. The log value of concentration was taken as the X-axis and the percentage inhibition rate was the Y-axis. […] Calculation formula: Y=Bottom+(Top−Bottom)/(1+10^((Log IC50−X)*HillSlope)).

CDK6/cyclin D3 = CDK6/cyclin D3 (Homo sapiens (Human), UniProt Q00534); test: Kinase activity assay, Caliper Mobility Shift Assay, CDK6/cyclin D3
CDK2/cyclin A2 = CDK2/cyclin A2 (Homo sapiens (Human), UniProt P24941); test: Kinase activity assay, Caliper Mobility Shift Assay, CDK2/cyclin A2
Experimental: The inhibitory effect of the compound on the kinase CDK4/cyclin D3 was tested by the Caliper Mobility Shift Assay method. The final test concentration of the compound was 10 concentrations, which started from […] and were obtained by three-fold dilution. 5 μL of 5-fold final concentration compound and 10 μL of CDK4/Cyclin D3 kinase solution with final concentration of 10 nM were added to the 384-well reaction plate respectively, and pre incubated at room temperature for 10 minutes (the negative control well contained 10 μL kinase buffer and 5 μL 5% DMSO; the positive control well contained 10 μL kinase solution and 5 μL 5% DMSO). The mixture of 10 μL ATP with a final concentration of 250 μM and the corresponding substrate peptide was added to initiate the reaction, and the mixture was reacted at room temperature for 150 minutes. 30 μL of stop test solution containing EDTA was added to stop the kinase reaction. Conversion rate was read by Caliper EZ Reader. Conversion inhibition rate %=(average conversion rate of positive control %−sample conversion rate %)/(average conversion rate of positive control %−average conversion rate of negative control %). Wherein: the negative control well represents conversion rate reading of wells without enzyme activity; the positive control well represents conversion rate reading of wells without compound inhibition. The log value of concentration was taken as the X-axis and the percentage inhibition rate was the Y-axis. The dose-effect curve was fitted by log(inhibitor) vs. response—Variable slope of the analysis software GraphPad Prism 5, and the IC50 value of each compound on the enzyme activity was obtained. Calculation formula: Y=Bottom+(Top−Bottom)/(1+10^((Log IC50−X)*HillSlope)).
The IC50 values of the compounds of the present disclosure for CDK6/cyclin D3 and CDK2/cyclin A2 were tested in a similar manner.

CDK6/cyclin D3, sequence (Q00534 whole entry, species assumed): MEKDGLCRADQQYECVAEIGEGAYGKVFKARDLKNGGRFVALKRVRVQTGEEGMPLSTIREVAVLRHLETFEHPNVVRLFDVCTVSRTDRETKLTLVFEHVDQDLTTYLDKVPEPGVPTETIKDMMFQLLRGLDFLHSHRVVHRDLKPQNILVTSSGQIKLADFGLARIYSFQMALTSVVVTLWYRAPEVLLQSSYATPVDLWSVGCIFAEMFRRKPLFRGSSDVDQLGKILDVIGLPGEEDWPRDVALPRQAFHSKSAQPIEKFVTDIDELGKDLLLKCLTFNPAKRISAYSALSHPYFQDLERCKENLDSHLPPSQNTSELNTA
CDK6/cyclin D3, sequence (P30281 whole entry partner, species assumed): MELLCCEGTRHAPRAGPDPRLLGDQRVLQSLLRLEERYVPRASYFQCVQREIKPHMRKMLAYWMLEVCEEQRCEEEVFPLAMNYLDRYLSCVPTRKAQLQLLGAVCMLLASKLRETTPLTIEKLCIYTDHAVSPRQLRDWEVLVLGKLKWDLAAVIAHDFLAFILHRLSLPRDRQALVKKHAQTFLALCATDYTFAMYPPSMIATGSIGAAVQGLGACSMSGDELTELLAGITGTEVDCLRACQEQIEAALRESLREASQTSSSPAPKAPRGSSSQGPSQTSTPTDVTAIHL
CDK4/cyclin D3, sequence (P11802 whole entry, species assumed): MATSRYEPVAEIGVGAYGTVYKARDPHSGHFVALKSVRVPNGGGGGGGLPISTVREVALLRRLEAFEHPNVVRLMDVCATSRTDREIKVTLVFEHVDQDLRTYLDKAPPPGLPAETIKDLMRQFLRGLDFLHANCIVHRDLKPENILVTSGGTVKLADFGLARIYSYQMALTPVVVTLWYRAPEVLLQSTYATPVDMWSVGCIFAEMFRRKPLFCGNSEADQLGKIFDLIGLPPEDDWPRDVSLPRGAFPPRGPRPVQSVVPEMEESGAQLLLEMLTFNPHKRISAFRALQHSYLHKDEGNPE
CDK4/cyclin D3, sequence (P30281 whole entry partner, species assumed): as the sequence (P30281 whole entry partner, species assumed) above

| SMILES | pIC50 (CDK4/cyclin D3) | pIC50 (CDK6/cyclin D3) | pIC50 (CDK2/cyclin A2) |
| --- | --- | --- | --- |
| CC(C)n1nnc2ccc3cnc(Nc4ccc(N5CCNCC5)cn4)nc3c21 [Compound I-1, 1-Isopropyl-N-(5-(piperazin-1-yl)pyridin-2-yl)-1H-[1,2,3]triazolo[4,5-h]quinazolin-8-amine hydrochloride] | > 8.00 | > 8.00 |  |
| Cc1cc(Nc2ncc3ccc4nnn(C(C)C)c4c3n2)ncc1N1CCNCC1 [Compound I-2, 1-Isopropyl-N-(4-methyl-5-(piperazin-1-yl)pyridin-2-yl)-1H-[1,2,3]triazolo[4,5-h]quinazolin-8-amine hydrochloride] | 7.30 to 8.00 | 7.00 to 7.30 |  |
| Cc1nc(Nc2ncc3ccc4nnn(C(C)C)c4c3n2)ccc1N1CCNCC1 [Compound I-3, 1-Isopropyl-N-(6-methyl-5-(piperazin-1-yl)pyridin-2-yl)-1H-[1,2,3]triazolo[4,5-h]quinazolin-8-amine hydrochloride] | > 8.00 | > 8.00 |  |
| CC(C)n1nnc2ccc3cnc(Nc4ccc(N5CCN(C)CC5)cn4)nc3c21 [Compound I-4, 1-Isopropyl-N-(5-(4-methylpiperazin-1-yl)pyridin-2-yl)-1H-[1,2,3]triazolo[4,5-h]quinazolin-8-amine hydrochloride] | > 8.00 | > 8.00 |  |
| CCN1CCN(c2ccc(Nc3ncc4ccc5nnn(C(C)C)c5c4n3)nc2)CC1 [Compound I-5, N-(5-(4-Ethylpiperazin-1-yl)pyridin-2-yl)-1-isopropyl-1H-[1,2,3]triazolo[4,5-h]quinazolin-8-amine hydrochloride] | > 8.00 | > 8.00 |  |
| CC(C)n1nnc2ccc3cnc(Nc4ccc(N5CCOCC5)cn4)nc3c21 [Compound I-6, 1-Isopropyl-N-(5-morpholinopyridin-2-yl)-1H-[1,2,3]triazolo[4,5-h]quinazo-lin-8-amine hydrochloride] | > 8.00 | 7.30 to 8.00 |  |
| CC(C)N1CCN(c2ccc(Nc3ncc4ccc5nnn(C(C)C)c5c4n3)nc2)CC1 [Compound I-7, 1-Isopropyl-N-(5-(4-isopropylpiperazin-1-yl)pyridin-2-yl)-1H-[1,2,3]triazolo [4,5-h]quinazolin-8-amine hydrochloride] | > 8.00 | > 8.00 |  |
| CC(C)n1nnc2ccc3cnc(Nc4ccc(N5CCN(C6CC6)CC5)cn4)nc3c21 [Compound I-8, N-(5-(4-Cyclopropylpiperazin-1-yl)py-ridin-2-yl)-1-isopropyl-1H-[1,2,3]tri-azolo[4,5-h]quinazolin-8-amine hydrochloride] | > 8.00 | 7.30 to 8.00 |  |
| CC(C)CN1CCN(c2ccc(Nc3ncc4ccc5nnn(C(C)C)c5c4n3)nc2)CC1 [Compound I-9, N-(5-(4-Isobutylpiperazin-1-yl)pyridin-2-yl)-1-isopropyl-1H-[1,2,3]triazolo [4,5-h]quinazolin-8-amine hydrochloride] | > 8.00 | > 8.00 |  |
| CCN1CCN(Cc2ccc(Nc3ncc4ccc5nnn(C(C)C)c5c4n3)nc2)CC1 [Compound I-10, N-(5-((4-Ethylpiperazin-1-yl)methyl)pyridin-2-yl)-1-isopropyl-1H-[1,2,3]tri-azolo[4,5-h]quinazolin-8-amine hydrochloride] | > 8.00 | 7.30 to 8.00 |  |
| CC(C)n1nnc2ccc3cnc(Nc4ccc(N5CCC(N(C)C)CC5)cn4)nc3c21 [Compound I-11, N-(5-(4-(Dimethylamino)piperidin-1-yl)pyridin-2-yl)-1-isopropyl-1H-[1,2,3] triazolo[4,5-h]quinazolin-8-amine hydrochloride] | > 8.00 | > 8.00 |  |
| CC(C)n1nnc2ccc3cnc(Nc4ccc(C5CCNCC5)cn4)nc3c21 [Compound I-12, 1-Isopropyl-N-(5-(piperidin-4-yl)pyri-din-2-yl)-1H-[1,2,3]triazolo[4,5-h]quin-azolin-8-amine hydrochloride] | > 8.00 | > 8.00 |  |
| CC(C)n1nnc2ccc3cnc(Nc4ccc(N5CCNCC5)nn4)nc3c21 [Compound I-13, 1-Isopropyl-N-(6-(piperazin-1-yl)pyri-dazin-3-yl)-1H-[1,2,3]triazolo[4,5-h]quin-azolin-8-amine hydrochloride] | > 8.00 | 7.30 to 8.00 |  |
| CC(C)n1nnc2ccc3cnc(Nc4ccc(N5CCNCC5=O)cn4)nc3c21 [Compound I-14, 1-(6-((1-Isopropyl-1H-[1,2,3]triazolo[4,5-h]quinazolin-8-yl)amino)pyridin-3-yl)piperazin-2-one hydrochloride] | > 8.00 | 7.30 to 8.00 |  |
| CC(C)n1nnc2ccc3cnc(Nc4ccc(N5CCS(=O)(=O)CC5)cn4)nc3c21 [Compound I-15, 4-(6-((1-Isopropyl-1H-[1,2,3]triazolo[4,5-h]quinazolin-8-yl)amino)pyridin-3-yl)thiomorpholine 1,1-dioxide hydrochloride] | > 8.00 | 7.30 to 8.00 |  |
| COc1ccc2cc(Nc3ncc4ccc5nnn(C(C)C)c5c4n3)ccc2n1 [Compound I-16, 1-Isopropyl-N-(2-methoxyquinolin-6-yl)-1H-[1,2,3]triazolo[4,5-h]quinazolin-8-amine hydrochloride] | > 8.00 | > 8.00 |  |
| CC(C)n1nnc2ccc3cnc(Nc4ccc(N5CC6(CCNCC6)C5)cn4)nc3c21 [Compound I-17, N-(5-(2,7-Diazaspiro[3.5]nonan-2-yl)pyridin-2-yl)-1-isopropyl-1H-[1,2,3]tri-azolo[4,5-h]quinazolin-8-amine hydrochloride] | > 8.00 | 7.30 to 8.00 |  |
| CC(C)Cn1nnc2ccc3cnc(Nc4ccc(N5CCNCC5)cn4)nc3c21 [Compound I-18, 1-Isobutyl-N-(5-(piperazin-1-yl)pyridin-2-yl)-1H-[1,2,3]triazolo[4,5-h]quina-zolin-8-amine] | > 8.00 | 7.30 to 8.00 |  |
| CC(C)Cn1nnc2ccc3cnc(Nc4ccc(N5CCN(C)CC5)cn4)nc3c21 [Compound I-19, 1-Isobutyl-N-(5-(4-methylpiperazin-1-yl)pyridin-2-yl)-1H-[1,2,3]triazolo[4,5-h]quinazolin-8-amine hydrochloride] | > 8.00 | 7.30 to 8.00 |  |
| CCN1CCN(c2ccc(Nc3ncc4ccc5nnn(CC(C)C)c5c4n3)nc2)CC1 [Compound I-20, N-(5-(4-Ethylpiperazin-1-yl)pyridin-2-yl)-1-isobutyl-1H-[1,2,3]triazolo[4,5-h] quinazolin-8-amine] | > 8.00 | 7.30 to 8.00 |  |
| CC(C)Cn1nnc2ccc3cnc(Nc4ccc(N5CCOCC5)cn4)nc3c21 [Compound I-21, 1-Isobutyl-N-(5-morpholinopyridin-2-yl)-1H-[1,2,3]triazolo[4,5-h]quinazolin-8-amine] | 7.30 to 8.00 | 7.00 to 7.30 |  |
| c1cc(Nc2ncc3ccc4nnn(C5CCCC5)c4c3n2)ncc1N1CCNCC1 [Compound I-22, 1-Cyclopentyl-N-(5-(piperazin-1-yl)pyridin-2-yl)-1H-[1,2,3]triazolo[4,5-h]quinazolin-8-amine hydrochloride] | > 8.00 | > 8.00 |  |
| CN1CCN(c2ccc(Nc3ncc4ccc5nnn(C6CCCC6)c5c4n3)nc2)CC1 [Compound I-23, 1-Cyclopentyl-N-(5-(4-methylpiperazin-1-yl)pyridin-2-yl)-1H-[1,2,3]triazolo[4,5-h] quinazolin-8-amine] | > 8.00 | 7.30 to 8.00 |  |
| CC(C)n1nnc2ccc3cnc(Nc4ccc(N5CCNCC5)cc4)nc3c21 [Compound I-24, 1-isopropyl-N-(4-(piperazin-1-yl)phenyl)-1H-[1,2,3]triazolo[4,5-h]quinazolin-8-amine hydrochloride] | > 8.00 | > 8.00 | > 8.00 |
| CCN1CCN(c2ccc(Nc3ncc4ccc5nnn(C(C)C)c5c4n3)cc2)CC1 [Compound I-25, N-(4-(4-Ethylpiperazin-1-yl)phenyl)-1-iso-propyl-1H-[1,2,3]triazolo[4,5-h]quin-azolin-8-amine] | > 8.00 | > 8.00 | > 8.00 |
